Legend:
Type in all cases: in vivo
[1] = tested on: Perennial ryegrass/fine fescue mix; assay: Phytotoxicity via post emergence spray application (Table B2.4)
Description: The phytotoxicity of the compound of formula I to turfgrass species was tested. The compound was applied via post emergence spray to a range of warm and cool season turfgrass species at various rates and spray treatment treatment regimes. Percentage phytotoxicity assessments were taken at various timepoints.

[2] = tested on: Perennial ryegrass v. blend of Bright Star, Citation Fore and Quick Trans; assay: Phytotoxicity of granule formulations with safeners (Table B4.5); conditions: 8 DAT
Description: (§1) The phytotoxicity to turfgrass of the compound of formula I in combination with various safeners was tested. The combinations were applied by post emergence spray application. Percentage phytotoxicity assessments were taken at various timepoints. The safeners tested in these trials were cloquintocet-mexyl, cyprosulfamide, a compound of formula 2.3, and isoxadifen-ethyl.
Tables B4.4 and B4.5 present the results of trials using safeners applied in combination with granule formulations of the compound of formula I.

[3] = tested on: Trifolium repens (white clover); assay: Weed control of granule formulations, in St. Augustinegrass V. Delmar (Table B6.1)
Description: Two granule formulations were made and tested. Granule A is an inert granule formulation, comprising 99.06 wt % DG Lite 150 granules, 0.14 wt % compound of formula I, 0.50 wt % Sunspray 6N, and 0.30 wt % HiSil 233. The compound of formula I was added to the DG Lite granules while blending in a Continental Rollo-mixer.
Sunspray 6N oil was then sprayed onto the granules, and HiSil added to dry excess liquid and improve granule flowability. The granules were blended in the mixer for 20-30 minutes until homogeneous, and passed through a −12/+60 mesh to remove over and under sized particles.
Granule B is a fertiliser granule formulation, comprising 54.65 wt % urea, 6.63 wt % triple super phosphate, 4.95 wt % potassion chloride, 9.91 wt % huber clay, 7.22 wt % HiSil 233, 0.16 wt % compound of formula I, […] agnique ME 181, 2.07 wt % stepfac 8180, and 11.98 wt % water. […] The remaining HiSil was added and granules dried at 40-60° C., to remove excess liquid. Finally, the granules were passed through a −12/+60 mesh to remove over and under sized particles.
The weed control efficacy of the compound of formula I was tested. […] All treatments were watered-in 1 day after application. Percentage weed control assessments were taken at various timepoints.

[4] = tested on: Hydrocotyle sp. (dollarweed); assay: Weed control in combination with safeners, post emergence spray, in St. Augustinegrass v. Delmar (Table B7.1); conditions: no safener, 100 g ai/ha
Description: The weed control efficacy of the compound of formula I in combination with various safeners was tested. The combinations were applied by post emergence spray application. Percentage weed control assessments were taken at various timepoints.

turfgrass = assay: Example B4, conclusion in words; conditions: in combination with a safener
Description: as §1

[5] = tested on: Bermudagrass v. Tifway 419; assay: Phytotoxicity via granule application (Table B3.2)
[6] = Granule A (inert), 112 g ai/ha, 15 DAT
[7] = Granule A (inert), 112 g ai/ha, 20 DAT
[8] = Granule A (inert), 112 g ai/ha, 28 DAT
[9] = Granule A (inert), 280 g ai/ha, 28 DAT
[10] = Granule B (fertiliser), 112 g ai/ha, 11 DAT
[11] = Granule B (fertiliser), 112 g ai/ha, 15 DAT
[12] = Granule B (fertiliser), 112 g ai/ha, 20 DAT
[13] = Granule B (fertiliser), 112 g ai/ha, 28 DAT
[14] = Granule B (fertiliser), 280 g ai/ha, 11 DAT
[15] = Granule B (fertiliser), 280 g ai/ha, 15 DAT
[16] = Granule B (fertiliser), 280 g ai/ha, 20 DAT
[17] = Granule B (fertiliser), 280 g ai/ha, 28 DAT

With `COCCOCc1nc(C(F)(F)F)ccc1C(=O)C1=C(O)C2CCC(C2)C1=O` (centres unmarked) [Formula I, 4-Hydroxy-3-[2-(2-methoxyethoxymethyl)-6-trifluoromethylpyridine-3-carbonyl]-bicyclo[3.2.1]oct-3-en-2-one] the “% phytotoxicity” value ([1]; 1 appl, 140 g ai/ha, 6 DAT) was 4.00%, the “% phytotoxicity” value ([1]; 1 appl, 140 g ai/ha, 14 DAT) was 18.75% and the “% phytotoxicity” value ([1]; 1 appl, 140 g ai/ha, 21 DAT) was 6.75%. For the same molecule, the “% phytotoxicity” value ([1]; 1 appl, 140 g ai/ha, 28 DAT) was 2.50%, the “% phytotoxicity” value ([1]; 1 appl, 140 g ai/ha, 34 DAT) was 0.50% and the “% phytotoxicity” value ([1]; 1 appl, 140 g ai/ha, 39 DAT) was 0.00%. The “% phytotoxicity” value ([1]; 1 appl, 140 g ai/ha, 49 DAT) was 3.75%, the “% phytotoxicity” value ([1]; 1 appl, 280 g ai/ha, 6 DAT) was 4.50% and the “% phytotoxicity” value ([1]; 1 appl, 280 g ai/ha, 14 DAT) was 25.00%. For the same molecule, the “% phytotoxicity” value ([1]; 1 appl, 280 g ai/ha, 21 DAT) was 6.25%, the “% phytotoxicity” value ([1]; 1 appl, 280 g ai/ha, 28 DAT) was 1.75% and the “% phytotoxicity” value ([1]; 1 appl, 280 g ai/ha, 34 DAT) was 1.25%. For the same molecule, the “% phytotoxicity” value ([1]; 1 appl, 280 g ai/ha, 39 DAT) was 0.00%, the “% phytotoxicity” value ([1]; 1 appl, 280 g ai/ha, 49 DAT) was 0.00% and the “% phytotoxicity” value ([1]; 2 appl, 140 g ai/ha, 6 DAT) was 3.00%. The “% phytotoxicity” value ([1]; 2 appl, 140 g ai/ha, 14 DAT) was 20.00%, the “% phytotoxicity” value ([1]; 2 appl, 140 g ai/ha, 21 DAT) was 6.75% and the “% phytotoxicity” value ([1]; 2 appl, 140 g ai/ha, 28 DAT) was 2.75%. The “% phytotoxicity” value ([1]; 2 appl, 140 g ai/ha, 34 DAT) was 10.50%, the “% phytotoxicity” value ([1]; 2 appl, 140 g ai/ha, 39 DAT) was 8.75% and the “% phytotoxicity” value ([1]; 2 appl, 140 g ai/ha, 49 DAT) was 4.25%. The “% phytotoxicity” value ([1]; 2 appl, 280 g ai/ha, 6 DAT) was 3.50%, the “% phytotoxicity” value ([1]; 2 appl, 280 g ai/ha, 14 DAT) was 28.75% and the “% phytotoxicity” value ([1]; 2 appl, 280 g ai/ha, 21 DAT) was 11.00%. For the same molecule, the “% phytotoxicity” value ([1]; 2 appl, 280 g ai/ha, 28 DAT) was 17.50%, the “% phytotoxicity” value ([1]; 2 appl, 280 g ai/ha, 34 DAT) was 22.50% and the “% phytotoxicity” value ([1]; 2 appl, 280 g ai/ha, 39 DAT) was 23.75%. For the same molecule, the “% phytotoxicity” value ([1]; 2 appl, 280 g ai/ha, 49 DAT) was 10.00%, the “% phytotoxicity” value ([2]; DG Lite granule, no safener, 520 g ai/ha) was 18.8% and the “% phytotoxicity” value ([2]; DG Lite granule, safener Cyprosulfamide (0.07%), 520 g ai/ha) was 21.3%. For the same molecule, the “% phytotoxicity” value ([2]; DG Lite granule, safener Formula 2.3 (0.07%), 520 g ai/ha) was 20.0%, the “% phytotoxicity” value ([2]; DG Lite granule, safener Isoxadifen (0.07%), 520 g ai/ha) was 21.3% and the “% phytotoxicity” value ([2]; Spray, no safener, 260 g ai/ha) was 31.3%. The “% control” value ([3]; Granule A (inert), 112 g ai/ha, 7 DAT) was 46.70%, the “% control” value ([3]; Granule A (inert), 112 g ai/ha, 11 DAT) was 63.30% and the “% control” value [3, 6] was 66.70%. For the same molecule, the “% control” value [3, 7] was 63.30%, the “% control” value [3, 8] was 50.00% and the “% control” value ([3]; Granule A (inert), 280 g ai/ha, 7 DAT) was 56.70%. For the same molecule, the “% control” value ([3]; Granule A (inert), 280 g ai/ha, 11 DAT) was 76.70%, the “% control” value ([3]; Granule A (inert), 280 g ai/ha, 15 DAT) was 78.30% and the “% control” value ([3]; Granule A (inert), 280 g ai/ha, 20 DAT) was 70.00%. For the same molecule, the “% control” value [3, 9] was 51.70%, the “% control” value ([3]; Granule B (fertiliser), 112 g ai/ha, 7 DAT) was 53.30% and the “% control” value [3, 10] was 70.00%. For the same molecule, the “% control” value [3, 11] was 76.70%, the “% control” value [3, 12] was 75.00% and the “% control” value [3, 13] was 70.00%. The “% control” value ([3]; Granule B (fertiliser), 280 g ai/ha, 7 DAT) was 66.70%, the “% control” value [3, 14] was 80.00% and the “% control” value [3, 15] was 85.00%. For the same molecule, the “% control” value [3, 16] was 88.30%, the “% control” value [3, 17] was 81.70% and the “% control” value ([3]; Spray, 112 g ai/ha, 7 DAT) was 63.30%. For the same molecule, the “% control” value ([3]; Spray, 112 g ai/ha, 11 DAT) was 78.30%, the “% control” value ([3]; Spray, 112 g ai/ha, 15 DAT) was 81.70% and the “% control” value ([3]; Spray, 112 g ai/ha, 20 DAT) was 76.70%. For the same molecule, the “% control” value ([3]; Spray, 112 g ai/ha, 28 DAT) was 76.70%, the “% control” value ([3]; Spray, 280 g ai/ha, 7 DAT) was 71.70% and the “% control” value ([3]; Spray, 280 g ai/ha, 11 DAT) was 86.70%. The “% control” value ([3]; Spray, 280 g ai/ha, 15 DAT) was 90.00%, the “% control” value ([3]; Spray, 280 g ai/ha, 20 DAT) was 91.70% and the “% control” value ([3]; Spray, 280 g ai/ha, 28 DAT) was 76.70%. The “% control” value ([4]; 7 DAT) was 41.70%, the “% control” value ([4]; 11 DAT) was 61.70% and the “% control” value ([4]; 18 DAT) was 61.70%. For the same molecule, the “phytotoxicity in combination with a safener, in words” value (turfgrass) was “reduces the level of phytotoxicity to turfgrass”, the “% phytotoxicity” value [5, 6] was 0.00% and the “% phytotoxicity” value [5, 7] was 0.00%. For the same molecule, the “% phytotoxicity” value [5, 8] was 0.00%, the “% phytotoxicity” value [5, 9] was 0.00% and the “% phytotoxicity” value [5, 10] was 4.00%. The “% phytotoxicity” value [5, 11] was 0.00%, the “% phytotoxicity” value [5, 12] was 0.00% and the “% phytotoxicity” value [5, 13] was 0.00%. For the same molecule, the “% phytotoxicity” value [5, 14] was 15.00%, the “% phytotoxicity” value [5, 15] was 3.30% and the “% phytotoxicity” value [5, 16] was 1.30%. For the same molecule, the “% phytotoxicity” value [5, 17] was 0.00%, the “% phytotoxicity” value ([5]; Spray, 112 g ai/ha, 7 DAT) was 30.00% and the “% phytotoxicity” value ([5]; Spray, 112 g ai/ha, 11 DAT) was 18.30%. For the same molecule, the “% phytotoxicity” value ([5]; Spray, 112 g ai/ha, 15 DAT) was 10.00%, the “% phytotoxicity” value ([5]; Spray, 112 g ai/ha, 20 DAT) was 3.00% and the “% phytotoxicity” value ([5]; Spray, 112 g ai/ha, 28 DAT) was 0.00%. For the same molecule, the “% phytotoxicity” value ([5]; Spray, 280 g ai/ha, 7 DAT) was 66.70%, the “% phytotoxicity” value ([5]; Spray, 280 g ai/ha, 11 DAT) was 25.00% and the “% phytotoxicity” value ([5]; Spray, 280 g ai/ha, 15 DAT) was 10.00%. The “% phytotoxicity” value ([5]; Spray, 280 g ai/ha, 20 DAT) was 6.00% and the “% phytotoxicity” value ([5]; Spray, 280 g ai/ha, 28 DAT) was 0.00%.
